US4880789A, “2'-Substituted-4-deoxy-thiazolo(5,4-c)-rifamycin SV derivatives” (Gruppo Lepetit S.P.A., priority 1985, dated 1989)
Values after ≈ are worked out from the molar mass of the structure shown. Like-named read-outs stand apart in the source and are kept apart here.

Key:
[1] = test system: S. pneumoniae UC 41; test: MIC, two-fold dilution microtiter, S. pneumoniae UC 41; type: cell-based; conditions: Streptococcus pneumoniae, UC41, Todd-Hewitt broth, 18-24 h, 37° C, read-out: MIC
[2] = test system: Proteus vulgaris XI9H ATCC 881; test: MIC, two-fold dilution microtiter, P. vulgaris; type: cell-based; conditions: Proteus vulgaris, ATCC881
[3] = test system: Staphylococcus aureus ATCC 6538; test: MIC, two-fold dilution microtiter, S. aureus ATCC 6538; type: cell-based; conditions: Staphylococcus aureus, ATCC6538; S. aureus ATCC 6538; Iso-Sensitest broth; 18-24 h, 37° C; read-out: MIC
[4] = test system: Streptococcus pyogenes C203; test: MIC, two-fold dilution microtiter, S. pyogenes C203; type: cell-based; conditions: Streptococcus pyogenes, Todd-Hewitt broth, 18-24 h, 37° C, read-out: MIC
Protocol: (§1) The minimum inhibitory concentration (MIC) of representative compounds of the invention was determined using two-fold dilution method in microtiter system. The media used were: Todd-Hewitt broth (Difco) for steptococci; Iso-Sensitest broth (Oxoid) for staphylococci and gram-negative bacteria. The final inoculum was about 10^4 cfμ/ml. […] For M. tuberculosis H37 RV the inoculum consisted of 0.5-1% of a 7-9 day culture in Dubos medium. The tests were carried out in Kirschner medium supplemented with 10% horse serum. Observations were made after 7-days incubation at 37° C.

[5] = test system: Escherichia coli SKF 12140; test: MIC, two-fold dilution microtiter, E. coli SKF 12140; type: cell-based; conditions: Escherichia coli, SKF12140, Iso-Sensitest broth, 18-24 h, 37° C, read-out: MIC
[6] = test system: Pseudomonas aeruginosa ATCC 10145; test: MIC, two-fold dilution microtiter, P. aeruginosa ATCC 10145; type: cell-based; conditions: Pseudomonas aeruginosa, ATCC10145
[7] = test system: S. aureus TOUR L 165; test: MIC, two-fold dilution microtiter, S. aureus TOUR L 165; type: cell-based, Staphylococcus aureus; conditions: Staphylococcus aureus, TOURL165, S. aureus TOUR L 165, read-out: MIC
[8] = test system: Klebsiella pneumoniae ISM; test: MIC, two-fold dilution microtiter, K. pneumoniae ISM; type: cell-based; conditions: Klebsiella pneumoniae
[9] = test system: S. aureus tour L 165; test: experimental septicemia in mice (S. aureus); type: in vivo; conditions: Staphylococcus aureus, once daily for three days, survival on 10th day
Protocol: The antimicrobial activity of the compounds of the invention is also confirmed in "in vivo" tests. The animals (groups of five mice) were infected by intraperitoneal injection of 16-hour broth culture of S. aureus tour L 165. Inocula were adjusted so that untreated animals died of septicemia within 48 hours. Animals were treated once daily for three days starting immediately after infection. On the 10th day the value for the ED50 in mg/kg/day was calculated by the method of […]-KARBER (Finney, D. J., Statistical method in biological assay, page 524. C. Griffin Ltd., London, 1952), on the basis of the percentage of surviving animals at each dose.

[10] = test system: S. faecalis ATCC 7080; test: MIC, two-fold dilution microtiter, S. faecalis ATCC 7080; type: cell-based; conditions: Enterococcus faecalis, ATCC7080, 18-24 h, 37° C, read-out: MIC
[11] = test system: Mycobacterium tuberculosis H37RV ATCC 9360; test: MIC, M. tuberculosis H37RV, Kirschner medium; type: cell-based; conditions: Mycobacterium tuberculosis, 168 h, 10% horse serum, 7 days, 37° C, read-out: MIC
Protocol: as §1

[12] = test system: S. aureus TOUR L 1282; test: MIC, two-fold dilution microtiter, rifampicin resistant S. aureus TOUR L 1282; type: cell-based; conditions: Staphylococcus aureus, TOURL1282, rifampicin resistant strain
[13] = Iso-Sensitest broth, 18-24 h, 37° C
[14] = supplemented with 30% bovine serum

| SMILES | MIC [1] [µg/mL] | MIC [2] [µg/mL] | MIC [3] [µg/mL] | MIC [4] [µg/mL] | MIC [5] [µg/mL] | MIC [6] [µg/mL] | MIC [7, 13] [µg/mL] | MIC [7, 14] [µg/mL] | MIC [8] [µg/mL] | ED50 ([9]; TOURL165, 240 h, sc) [mg/kg] | ED50 ([9]; TOURL165, po, 240 h, os) [mg/kg] | MIC [10] [µg/mL] | MIC [11] [µg/mL] | MIC [12] [µg/mL] | MIC ([2]; P. vulgaris XI9H ATCC 881, Iso-Sensitest broth, 18-24 h, 37° C, read-out: MIC) [µg/mL] | MIC ([6]; P. aeruginosa ATCC 10145, Iso-Sensitest broth, 18-24 h, 37° C, read-out: MIC) [µg/mL] | MIC ([8]; K. pneumoniae ISM, Iso-Sensitest broth, 18-24 h, 37° C, read-out: MIC) [µg/mL] |
| --- | --- | --- | --- | --- | --- | --- | --- | --- | --- | --- | --- | --- | --- | --- | --- | --- | --- |
| COC1C=COC2(C)Oc3c(C)c(O)c4c(O)c(c5sc(N6CCN(c7ccc(Cl)cc7)CC6)nc5c4c3C2=O)NC(=O)C(C)=CC=CC(C)C(O)C(C)C(O)C(C)C(OC(C)=O)C1C (stereo not shown) [Example 3d, 2'-[4"(4'"-chlorophenyl)-1-piperazinyl]rifamycin P] | 0.125 (≈ 0.134 µM) | > 128 | 0.064 (≈ 0.0686 µM) | 0.064 (≈ 0.0686 µM) | 1 (≈ 1.07 µM) | 128 (≈ 137 µM) | 0.064 (≈ 0.0686 µM) | 0.25 (≈ 0.268 µM) | > 128 | 3.3 | 3.3 | 2 (≈ 2.14 µM) | 1 (≈ 1.07 µM) | > 128 | – | – | – |
| COC1C=COC2(C)Oc3c(C)c(O)c4c(O)c(c5sc(N6CCOCC6)nc5c4c3C2=O)NC(=O)C(C)=CC=CC(C)C(O)C(C)C(O)C(C)C(OC(C)=O)C1C (stereo not shown) [Example 1b, 2'-(4"-morpholinyl) rifamycin P] | 0.016 (≈ 0.0194 µM) | – | 0.001 (≈ 0.00121 µM) | 0.032 (≈ 0.0388 µM) | 16 (≈ 19.4 µM) | – | 0.002 (≈ 0.00243 µM) | 0.008 (≈ 0.00971 µM) | – | 0.21 | 0.21 | 1 (≈ 1.21 µM) | 2 (≈ 2.43 µM) | 64 (≈ 77.7 µM) | 8 (≈ 9.71 µM) | 16 (≈ 19.4 µM) | 32 (≈ 38.8 µM) |
